From patent US9310660B2, “Organic compound and electrochromic element including the same” (CANON KABUSHIKI KAISHA, priority 2013, dated 2016)

Experiments:
[1] = Solubility in propylene carbonate; type: physicochemical; conditions: organic solvent or mixture
Method: The solubilities of three compounds: Compound A-1 prepared in Example 1, Compound B-1 prepared in Example 2, and pyridinium salt precursor Ref-1 of Compound A-1 as a comparative example, in propylene carbonate, a solvent for an EC element, were measured.
Compound Ref-1 as a comparative example has a structure in which the pyridinium salt moiety of Compound A-1 is replaced by a non-ionized structure, a pyridyl group. The molecular structure is shown below.

[2] = Ultraviolet and visible absorption spectrum in chloroform; type: physicochemical; conditions: dissolved in chloroform, neutralized state
Method: The resulting exemplified compound A-1 was dissolved in chloroform. The absorption spectrum of the solution was measured with an ultraviolet and visible spectrometer (V-560, manufactured by JASCO Corp.) and is shown in FIG. 2.
The resulting exemplified compound B-1 was dissolved in chloroform. The absorption spectrum of the solution was measured as in Example 1.

Row | solubility [1] [mM] | maximum absorption peak λmax [2] [nm] | Structure (SMILES)
1 | ≥ 300 | 355.5 | Cc1cc(C)c(-c2cc3sc4cc(-c5cccc(-c6cc[n+](Cc7ccccc7)cc6)c5)sc4c3s2)c(C)c1 [Compound A-1]
2 | ≥ 75 | 311.5 | Cc1c(-c2cccc(-c3cc[n+](Cc4ccccc4)cc3)c2)sc(-c2cccc(-c3cc[n+](Cc4ccccc4)cc3)c2)c1C [Compound B-1]

Row | Structure (SMILES) | solubility [1] [mM] | maximum absorption peak λmax [2] [nm]
3 | Cc1cc(C)c(-c2cc3sc4cc(-c5cccc(-c6ccncc6)c5)sc4c3s2)c(C)c1 [Ref-1, reference compound] | ≤ 8 | –
